Experimental data as given in US5519038A, “N,N'-bis(alkoxyalkyl)-pyridine-2,4-dicarboxylic acid diamines” (Hoechst Aktiengesellschaft, priority 1989, dated 1996).

Columns and labels:
proline hydroxylase [1] = conditions: in words; K. Majamaa et al., 1984; cited from earlier work
proline hydroxylase [2] = conditions: in words; Tschank, G. et al., 1987; cited from earlier work
[3] = Enteral absorbability: serum levels after intragastral administration; assay type: in vivo, female Wistar rats; set-up: unit not given here; conditions: 50 mg/kg perorally (intragastral), mean of 4 measurements
Description: The absorbability was investigated on Wistar rats to which the compounds according to the invention were administered intragastrally. The serum level dropped in the first hours after administration of the substance, and after about 5 hours reached a plateau which still fell only slightly. The good absorbability of the substances can be concluded from the initially very high serum level directly after administration of the substances.
Female Wistar rats of about 150 g body weight are given an intragastral administration of 50 mg/kg of the substance under investigation by means of a stomach probe.
In each case 4 rats are anesthetized after 5; 10; 15; 30; 60; 120; 180 and 240 minutes and exsanguinated via the Vena Cava. The blood is centrifuged immediately and the compound administered is extracted from the serum using ether. After the ether has been evaporated, the residue is taken up in […] of mobile phase. The mobile phase consists of 0.05M phosphoric acid and acetonitrile (4:1). 50 μl of this sample are injected into a high performance liquid chromatography column. Detection is performed under UV of 200 nm with a retention time of 2.2 minutes.

[4] = system: liver hydroxyproline (proline hydroxylase and lysine hydroxylase); assay: Pharmacological activity: inhibition of liver hydroxyproline synthesis in CCl4-treated rats; assay type: in vivo; conditions: versus CCl4 control
[5] = system: serum 7s-(IV)-collagen (proline hydroxylase and lysine hydroxylase); assay: Pharmacological activity: inhibition of serum 7s-(IV)-collagen synthesis in CCl4-treated rats; assay type: in vivo; conditions: versus CCl4 control
[6] = system: Clq biosynthesis of macrophages; conditions: in words; W. Muller et al., 1978; cited from earlier work
[7] = 120 minutes, DL = detection limit

## O=C(O)c1ccc(C(=O)O)nc1 [pyridine-2,5-dicarboxylic acid]
Proline hydroxylase [1]
  Inhibition of proline hydroxylase: inhibited effectively
Proline hydroxylase [2]
  Activity as inhibitors in the cell culture: effective as inhibitors only in very high concentrations

## COCCCNC(=O)c1ccnc(C(=O)NCCCOC)c1 [Example 1, Pyridine-2,4-dicarboxylic acid bis-N,N'-(methoxypropyl) amide]
[3]; 5 minutes
  Serum level (x, SD): 45.3 ± 15.4
[3]; 10 minutes
  Serum level (x, SD): 49.8 ± 3.6
[3]; 15 minutes
  Serum level (x, SD): 39.9 ± 11.0
[3]; 30 minutes
  Serum level (x, SD): 28.1 ± 3.2
[3]; 60 minutes
  Serum level (x, SD): 9.4 ± 5.5
[3]; [7]
  Serum level (x, SD): 0.3 ± 0.3
[4]; 2 × 2 mg, p.o.
  Liver hydroxyproline [% inhibition]: 62 % inhibition
[4]; 2 × 10 mg, p.o.
  Liver hydroxyproline [% inhibition]: 90 % inhibition
[5]; 2 × 2 mg, p.o.
  Serum 7s-(IV)-collagen [% inhibition]: 28 % inhibition
[5]; 2 × 10 mg, p.o.
  Serum 7s-(IV)-collagen [% inhibition]: 67 % inhibition

## O=C(O)c1ccnc(C(=O)O)c1 [pyridine-2,4-dicarboxylic acid]
Proline hydroxylase [1]
  Inhibition of proline hydroxylase: inhibited effectively
Proline hydroxylase [2]
  Activity as inhibitors in the cell culture: effective as inhibitors only in very high concentrations

## CC(C)OCCCNC(=O)c1ccnc(C(=O)NCCCOC(C)C)c1 [20 (from SA-88-0896), N,N'-bis(3-isopropoxypropyl)-pyridine-2,4-dicarboxylic acid diamide, reference compound]
[4]; 2 × 25 mg, p.o.
  Liver hydroxyproline [% inhibition]: 49 % inhibition
[5]; 2 × 25 mg, p.o.
  Serum 7s-(IV)-collagen [% inhibition]: 11 % inhibition

## CCOCCCNC(=O)c1ccnc(C(=O)NCCCOCC)c1 [Example 2, Pyridine-2,4-dicarboxylic acid bis-N,N'-(ethoxypropyl)amide]
[3]; 5 minutes
  Serum level (x, SD): 51.4 ± 11.2
[3]; 10 minutes
  Serum level (x, SD): 39.2 ± 4.0
[3]; 15 minutes
  Serum level (x, SD): 29.4 ± 6.7
[3]; 30 minutes
  Serum level (x, SD): 15.2 ± 5.6
[3]; 60 minutes
  Serum level (x, SD): 1.4 ± 1.0
[4]; 2 × 2 mg, p.o.
  Liver hydroxyproline [% inhibition]: 25 % inhibition
[4]; 2 × 10 mg, p.o.
  Liver hydroxyproline [% inhibition]: 60 % inhibition
[5]; 2 × 2 mg, p.o.
  Serum 7s-(IV)-collagen [% inhibition]: 2 % inhibition
[5]; 2 × 10 mg, p.o.
  Serum 7s-(IV)-collagen [% inhibition]: 35 % inhibition

## c1ccc(-c2ccccn2)nc1 [α, α'-dipyridyl]
[6]
  Inhibition of Clq biosynthesis of macrophages: leads to an inhibition of the Clq biosynthesis of macrophages

## COCCNC(=O)c1ccnc(C(=O)NCCOC)c1 [19 (from SA-88-0896), N,N'-bis(2-methoxyethyl)-pyridine-2,4-dicarboxylic acid diamide, reference compound]
[4]; 2 × 25 mg, i.p.
  Liver hydroxyproline [% inhibition]: 55 % inhibition
[5]; 2 × 25 mg, i.p.
  Serum 7s-(IV)-collagen [% inhibition]: 48 % inhibition

## COC(CNC(=O)c1ccnc(C(=O)NCC(OC)OC)c1)OC [Example 3, Pyridine-2,4-dicarboxylic acid bis-N,N'-(2-dimethoxyethyl) amide]
[3]; 5 minutes
  Serum level (x, SD): 8.9 ± 3.1
[3]; 10 minutes
  Serum level (x, SD): 11.5 ± 0.6
[3]; 15 minutes
  Serum level (x, SD): 14.7 ± 1.9
[3]; 30 minutes
  Serum level (x, SD): 10.7 ± 1.9
[3]; 60 minutes
  Serum level (x, SD): 11.3 ± 1.5
[3]; [7]
  Serum level (x, SD): 5.5 ± 0.9
[3]; 180 minutes, DL = detection limit
  Serum level (x, SD): 2.9 ± 0.5
[3]; 240 minutes, DL = detection limit
  Serum level (x, SD): 1.7 ± 0.4
